For experiment [1], the system named is HPAC (homozygous mutant KRAS G12D human pancreatic cell line). Put plainly: KRAS 3D-Cell Proliferation Assay, HPAC (Example 503). Conditions: HPAC 3D culture, 7 days, CellTiter-Glo 3D, read-out: Prolif HPAC 3D ATP IC50. The format is cell-based. The procedure:
(§1) Example 503: KRAS 3D-Cell Proliferation Assays. Cellular potencies of compounds are assessed by evaluating inhibition of proliferation in 3D cultures of homozygous mutant KRAS G12D human pancreatic cell lines (AsPC-1 and HPAC) as compared to a KRAS wild type human lung adenocarcinoma cell line (PC-9 and/or H1975). Cells are seeded into 384-well black round-bottom, ultra-low attachment assay plates in 50 uL cell growth medium (RPMI-1640 with 10% fetal bovine serum and 2 mM L-glutamine). After overnight incubation at 37° C. and 5% CO2, compounds solubilized in DMSO are added as dilution series to the wells in a total volume of 150 nL (0.3% DMSO final). The cells are incubated for 7 days at 37° C. and 5% CO2. Cell proliferation is quantitated by addition of 40 uL/well of CellTiter-GloÒ 3D (Promega), and the well contents are mixed 20× at high speed using liquid handling automation workstation (Bravo with 384-well head) and centrifuged at 1500 rpm for 2 minutes to eliminate bubbles. This reagent in combination with mechanical disruption releases the cellular ATP to promote activity in a luciferase-based enzyme/substrate chemiluminescent detection system. After a 30-minute incubation under ambient conditions with shaking and an additional 10 minutes without shaking, the luminescence is read on a plate reader (e.g., EnVision [PerkinElmer]). The results are normalized to percent inhibition based on the following control samples: DMSO (0% inhibition) and 1 μM staurosporine (100% inhibition). The normalized luminescence results are plotted against compound concentration, and the data are fit to a 4-parameter Hill equation to determine the IC50 values.
Background: In ATP-based viability assays light output follows the ATP content of the culture.

In experiment [2] the test system is H1975 (KRAS wild type human lung adenocarcinoma cell line). Put plainly: KRAS 3D-Cell Proliferation Assay, H1975 (Example 503). In kind it is cell-based. Conditions: H1975 3D culture, 7 days, CellTiter-Glo 3D, read-out: Prolif H1975 3D ATP IC50. The procedure: as §1

pIC50: −log10 of the molar value. Like-named read-outs stand apart in the source and are kept apart here.

In general, pIC50 refers to the IC50 on a negative log10 scale, so that one unit is a factor of ten. For `Cc1c(F)c(N)cc(-c2nc3c4c(nc(OCC5CC6COCCN65)nc4c2F)N2C[C@H]4CC[C@H](N4)[C@H]2[C@H](C)O3)c1C(F)(F)F` (mixture of isomers) [159 (mixture), 5-((5S,5aS,6S,9R)-12-((4-Oxa-1-azabicyclo[4.2.0]octan-8-yl)methoxy)-1-fluoro-5-methyl-5a,6,7,8,9,10-hexahydro-5H-4-oxa-3,10a,11,13,14-pentaaza-6,9-methanonaphtho[1,8-ab]heptalen-2-yl)-2-fluoro-3-methyl-4-(trifluoromethyl)aniline], the negative logarithm of the IC50 (pIC50) was 7.75 in experiment [1] (Homo sapiens, HPAC, 168 h) and 5.43 in experiment [2] (Homo sapiens, NCI-H1975, 168 h). For the molecule `Cc1c(F)c(N)cc(-c2nc3c4c(nc(OCC5CCC6CN(C)C(=O)CN56)nc4c2F)N2C[C@H]4CC[C@H](N4)[C@H]2[C@H](C)O3)c1C(F)(F)F` (mixture of isomers) [Compound 124, 6-((((5S,5aS,6S,9R)-2-(5-Amino-4-fluoro-3-methyl-2-(trifluoromethyl)phenyl)-1-fluoro-5-methyl-5a,6,7,8,9,10-hexahydro-5H-4-oxa-3,10a,11,13,14-pentaaza-6,9-methanonaphtho[1,8-ab]heptalen-12-yl)oxy)methyl)-2-methylhexahydropyrrolo[1,2-a]pyrazin-3(4H)-one], the pIC50 was 6.53 in experiment [1] (Homo sapiens, HPAC, 168 h) and 4.91 in experiment [2] (Homo sapiens, NCI-H1975, 168 h). In the case of `Cc1c(F)c(N)cc(-c2nc3c4c(nc(OCC56CCN5CC(F)(F)C6)nc4c2F)N2C[C@H]4CC[C@H](N4)[C@H]2[C@H](C(F)(F)F)O3)c1C(F)(F)F` (mixture of isomers) [Compound 244, 5-((5R,5aS,6S,9R)-12-((3,3-Difluoro-1-azabicyclo[3.2.0]heptan-5-yl)methoxy)-1-fluoro-5-(trifluoromethyl)-5a,6,7,8,9,10-hexahydro-5H-4-oxa-3,10a,11,13,14-pentaaza-6,9-methanonaphtho[1,8-ab]heptalene-2-yl)-2-fluoro-3-methyl-4-(trifluoromethyl)aniline], the negative logarithm of the IC50 (pIC50) was 8.21 in experiment [1] (Homo sapiens, HPAC, 168 h) and 6.59 in experiment [2] (Homo sapiens, NCI-H1975, 168 h). For `Cc1nc(N)cc(-c2nc3c4c(nc(OCC5(CN6CC7CC(F)(F)C7C6)CC5)nc4c2F)N2C[C@H]4CC[C@H](N4)[C@H]2[C@H](C)O3)c1C(F)(F)F` (mixture of isomers) [Compound 264, 4-((5S,5aS,6S,9R)-12-((1-((6,6-difluoro-3-azabicyclo[3.2.0]heptan-3-yl)methyl)cyclopropyl)methoxy)-1-fluoro-5-methyl-5a,6,7,8,9,10-hexahydro-5H-4-oxa-3,10a,11,13,14-pentaaza-6,9-methanonaphtho[1,8-ab]heptalene-2-yl)-6-methyl-5-(trifluoromethyl)pyridin-2-amine], in that order: 8.25 and 4.96. The like results for `Cc1c(F)c(N)cc(-c2nc3c4c(nc(OCC5CCC6CC(F)(F)CCN56)nc4c2F)N2CC4CCC(N4)C2C(C)O3)c1C(F)(F)F` (single isomer, unassigned) [119 (isomer 1)] were, in that order, 7.12 and 5.50. As to `Cc1c(F)c(N)cc(-c2nc3c4c(nc(OC[C@@H]5CCC6CC(F)(F)CCN65)nc4c2F)N2C[C@H]4CC[C@H](N4)[C@H]2[C@H](C)O3)c1C(F)(F)F` (single isomer, unassigned) [119 (isomer 2)], the negative logarithm of the IC50 (pIC50) in experiment [1] (Homo sapiens, HPAC, 168 h) is 8.10; in experiment [2] (Homo sapiens, NCI-H1975, 168 h), 5.77. As to `Cc1c(F)c(N)cc(-c2nc3c4c(nc(OCC5COCC6CCCN65)nc4c2F)N2CC4CCC(N4)C2C(C)O3)c1C(F)(F)F` (single isomer, unassigned) [121 (isomer 1)], the negative logarithm of the IC50 (pIC50) in experiment [1] (Homo sapiens, HPAC, 168 h) was 7.90. Take `Cc1c(F)c(N)cc(-c2nc3c4c(nc(OC[C@@]5(CCF)CCCN5C)nc4c2F)N2C[C@H]4CC[C@H](N4)[C@H]2[C@H](C)O3)c1C(F)(F)F` (single isomer, unassigned) [127 (isomer 1)]: the negative logarithm of the IC50 (pIC50) was 7.30 in experiment [1] (Homo sapiens, HPAC, 168 h) and 5.22 in experiment [2] (Homo sapiens, NCI-H1975, 168 h). For `Cc1c(F)c(N)cc(-c2nc3c4c(nc(OCC5(CCF)CCCN5C)nc4c2F)N2CC4CCC(N4)C2C(C)O3)c1C(F)(F)F` (single isomer, unassigned) [127 (isomer 2)], in that order: 7.24 and 5.10. `Cc1c(F)c(N)cc(-c2nc3c4c(nc(OCC5CCC6CN(C)C(=O)CN56)nc4c2F)N2CC4CCC(N4)C2C(C)O3)c1C(F)(F)F` (single isomer, unassigned) [131 (isomer 4)]: the negative-log IC50 (pIC50) in experiment [2] (Homo sapiens, NCI-H1975, 168 h) is 5.17. For `Cc1c(F)c(N)cc(-c2nc3c4c(nc(OC[C@@H]5CC[C@@H]6C[C@@H](C(=O)N(C)C)CCN65)nc4c2F)N2C[C@H]4CC[C@H](N4)[C@H]2[C@H](C)O3)c1C(F)(F)F` (single isomer, unassigned) [133 (isomer 1)], the pIC50 in experiment [1] (Homo sapiens, HPAC, 168 h) was 7.57; in experiment [2] (Homo sapiens, NCI-H1975, 168 h) it was 5.58. Regarding `Cc1c(F)c(N)cc(-c2nc3c4c(nc(OC[C@@H]5CC[C@@H]6CC(C(=O)N(C)C)CCN65)nc4c2F)N2C[C@H]4CC[C@H](N4)[C@H]2[C@H](C)O3)c1C(F)(F)F` (single isomer, unassigned) [133 (isomer 3)], the negative-log IC50 (pIC50) is 7.44 in experiment [1] (Homo sapiens, HPAC, 168 h) and 6.18 in experiment [2] (Homo sapiens, NCI-H1975, 168 h).

Regarding `Cc1c(F)c(N)cc(-c2nc3c4c(nc(OCC5CCC6CC(C(=O)N(C)C)CCN56)nc4c2F)N2CC4CCC(N4)C2C(C)O3)c1C(F)(F)F` (single isomer, unassigned) [133 (isomer 4)], the negative logarithm of the IC50 (pIC50) was 7.85 in experiment [1] (Homo sapiens, HPAC, 168 h) and 5.68 in experiment [2] (Homo sapiens, NCI-H1975, 168 h).

Turning to `Cc1c(F)c(N)cc(-c2nc3c4c(nc(OC[C@]56COC[C@H]5CCN6C)nc4c2F)N2C[C@H]4CC[C@H](N4)[C@H]2[C@H](C)O3)c1C(F)(F)F` (single isomer, unassigned) [134 (isomer 1)], the pIC50 is 8.07 in experiment [1] (Homo sapiens, HPAC, 168 h) and 5.59 in experiment [2] (Homo sapiens, NCI-H1975, 168 h). On to `Cc1c(F)c(N)cc(-c2nc3c4c(nc(OCC56COCC5CCN6C)nc4c2F)N2CC4CCC(N4)C2C(C)O3)c1C(F)(F)F` (single isomer, unassigned) [134 (isomer 2)], for which the pIC50 was 8.13 in experiment [1] (Homo sapiens, HPAC, 168 h) and 5.71 in experiment [2] (Homo sapiens, NCI-H1975, 168 h). Turning to `Cc1c(F)c(N)cc(-c2nc3c4c(nc(OC[C@@]56CCCN5CCN(C)C6=O)nc4c2F)N2C[C@H]4CC[C@H](N4)[C@H]2[C@H](C)O3)c1C(F)(F)F` (single isomer, unassigned) [137 (isomer 1)], the pIC50 is 6.90 in experiment [1] (Homo sapiens, HPAC, 168 h) and 4.70 in experiment [2] (Homo sapiens, NCI-H1975, 168 h).

As to `Cc1c(F)c(N)cc(-c2nc3c4c(nc(OCC56CCCN5CCN(C)C6=O)nc4c2F)N2C[C@H]4CC[C@H](N4)[C@H]2[C@H](C)O3)c1C(F)(F)F` (single isomer, unassigned) [137 (isomer 2)], the pIC50 in experiment [2] was 4.70. Turning to `Cc1c(F)c(N)cc(-c2nc3c4c(nc(OC[C@]56CCCN5C[C@H](F)[C@@H]6F)nc4c2F)N2C[C@H]4CC[C@H](N4)[C@H]2[C@H](C)O3)c1C(F)(F)F` (single isomer, unassigned) [143 (isomer 1)], the negative-log IC50 (pIC50) in experiment [1] (Homo sapiens, HPAC, 168 h) was 8.33; in experiment [2] (Homo sapiens, NCI-H1975, 168 h), 6.01. In the case of `Cc1c(F)c(N)cc(-c2nc3c4c(nc(OCC56CCCN5CC(F)C6F)nc4c2F)N2CC4CCC(N4)C2C(C)O3)c1C(F)(F)F` (single isomer, unassigned) [143 (isomer 3)], in experiment [1] (Homo sapiens, HPAC, 168 h), the negative-log IC50 (pIC50) was 8.32. Regarding `Cc1c(F)c(N)cc(-c2nc3c4c(nc(OC[C@@]5(CC(F)F)CCCN5C)nc4c2F)N2C[C@H]4CC[C@H](N4)[C@H]2[C@H](C)O3)c1C(F)(F)F` (single isomer, unassigned) [150 (isomer 1)], the pIC50 in experiment [1] (Homo sapiens, HPAC, 168 h) is 7.86; in experiment [2] (Homo sapiens, NCI-H1975, 168 h), 5.42. For `Cc1c(F)c(N)cc(-c2nc3c4c(nc(OCC5(CC(F)F)CCCN5C)nc4c2F)N2CC4CCC(N4)C2C(C)O3)c1C(F)(F)F` (single isomer, unassigned) [150 (isomer 2)], the negative logarithm of the IC50 (pIC50) in experiment [1] (Homo sapiens, HPAC, 168 h) was 7.62; in experiment [2] (Homo sapiens, NCI-H1975, 168 h), 5.55. For `Cc1c(F)c(N)cc(-c2nc3c4c(nc(OCC5CC6COCCN65)nc4c2F)N2C[C@H]4CC[C@H](N4)[C@H]2[C@H](C)O3)c1C(F)(F)F` (single isomer, unassigned) [159 (diast. 1)], in experiment [1] (Homo sapiens, HPAC, 168 h), the pIC50 was 7.43. For the molecule `Cc1c(F)c(N)cc(-c2nc3c4c(nc(OC[C@]5(CN6C[C@H]7C[C@@H]6CO7)CC5(F)F)nc4c2F)N2C[C@H]4CC[C@H](N4)[C@H]2[C@H](C)O3)c1C(F)(F)F` (single isomer, unassigned) [166 a], in experiment [1], the negative-log IC50 (pIC50) was 8.84. For the molecule `C[C@@H]1Oc2nc(-c3cc(N)c(F)cc3[C@H](C)C(F)F)c(F)c3nc(OC[C@@]45CCCN4C[C@H](F)C5)nc(c23)N2C[C@H]3CC[C@H](N3)[C@@H]12` (single isomer, unassigned) [181 (isomer 1)], in experiment [2] (Homo sapiens, NCI-H1975, 168 h), the negative-log IC50 (pIC50) was 4.91.

Regarding `Cc1c(F)c(N)cc(-c2nc3c4c(nc(OC[C@@]56CCCN5C[C@H](F)C6)nc4c2F)N2C[C@H]4CC[C@H](N4)C2C(C(F)F)O3)c1C(F)(F)F` (single isomer, unassigned) [238 (isomer 2)], the negative-log IC50 (pIC50) in experiment [1] is 5.70. In the case of `Cc1nc(N)cc(-c2nc3c4c(nc(OCC5N(C)CC56CC6(F)F)nc4c2F)N2CC4CCC(N4)C2C(C(F)(F)F)O3)c1C(F)(F)F` (single isomer, unassigned) [262 (isomer 2)], the pIC50 in experiment [1] (Homo sapiens, HPAC, 168 h) was 6.91.

These data come from patent US12338256B2, “Aza-tetracyclic oxazepine compounds and uses thereof” (Genentech, Inc., priority 2022, dated 2025).
